Several values for one entry are separate records, joined by “and”; a condition that tells them apart may be missing. Equal entries are not always repeated.
System: LRF (luteinizing hormone releasing factor) induced luteinizing hormone (LH) release
Test: In vitro LRF antagonist test in rat anterior pituitary cell cultures
Assay type: cell-based
Conditions: for % LH Release Inhibition: test compound Molar Conc. 1 × 10^-6
Source text: Hexapeptides of this invention were screened for LRF antagonist activity in vitro using rat anterior pituitary cell cultures as described by Vale et. al. [Endocrinology, 91, 562 (1972)]. The inhibition of LRF (luteinizing hormone releasing factor) induced luteinizing hormone (LH) release into the culture medium is the endpoint in this in vitro bioassay.

[1] = test compound Molar Conc. 1 × 10^-6, LH released into culture medium

| Substance | % LH Release Inhibition [%] | LH Value [1] [ng/mL] | LH Value (LRF Control, Molar Conc. 2.5 × 10^-10) [ng/mL] | LH Value (LRF Control, Molar Conc. 3.5 × 10^-10) |
| --- | --- | --- | --- | --- |
| N^α -t-Butoxycarbonyl-N^im -benzyl-L-histidyl-L-tryptophyl-N^im -benzyl-L-histidyl-O-benzyl-L-tyrosyl-O-benzyl-L-seryl-D-alanine N-ethylamide | 73 | 24.80 |  |  |
| N^α -t-Butoxycarbonyl-L-tryptophyl-N^im -benzyl-L-histidyl-O-benzyl-L-tyrosyl-O-benzyl-L-seryl-L-prolyl-D-alanine N-ethylamide | 100 | 5.57 |  |  |
| LRF: luteinizing hormone releasing factor; stimulates secretion of luteinizing hormone from the anterior pituitary; used as stimulus control (QHWSYGLRPG; Gonadoliberin-1; UniProt P01148 24-33, looked up) [reference compound] |  |  | 38.98 | 66.03 ng/mL and 35.60 ng/mL |
| N^α -Benzyloxycarbonyl-L-glutaminyl-L-tryptophyl-N^im -benzyl-L-histidyl-O-benzyl-L-tyrosyl-O-benzyl-L-seryl-D-alanine methyl ester | 86 | 13.53 |  |  |
